Test results from patent US6379652B1, “Oral compositions for reducing mouth odors” (Colgate Palmolive Company, priority 2000, dated 2002).

Tested on: F. nucleatum
Test: MIC assay for bactericidal activity (microtiter format)
Type: cell-based
Parameters: MIC Value: unit not given here
Details: for MIC Value: individual flavors, 1% by weight solution in ethanol, F. nucleatum, lower = more effective; for bactericidal activity against F. nucleatum (in words): summary of Table I
Protocol: A 1% by weight solution in ethanol of a series of individual essential oil flavors were prepared and evaluated in an MIC assay for bactericidal activity against F. nucleatum. The bacterial strain F. nucleatum is implicated in the occurrence of oral malodor.
The bacterial strains of F. nucleatum were grown […] in thioglycolate broth for 48 hours at 37° C. The optical density at 610 nm was adjusted to between 0.1 to 0.2 prior the MIC determination.
MIC determinations were performed using the microtiter format according to standard procedures (Manual of clinical Microbiology, 1995).
The procedure of Example 1 was repeated except combinations of various flavor compounds were evaluated for antibacterial efficacy via the MIC assay.

Row | SMILES | MIC Value | bactericidal activity against F. nucleatum (in words)
1 | CC=Cc1ccc(OC)cc1 [Anethol] | 500 | 
2 | Cc1ccc(C(C)C)c(O)c1 [Thymol] | 125 | good bactericidal activity
3 | CC12CCC(CC1)C(C)(C)O2 [Eucalyptol] | 500 | 
4 | C=CCc1ccc(O)c(OC)c1 [Eugenol] | 250 | good bactericidal activity
5 | CC(C)[C@@H]1CC[C@@H](C)C[C@H]1O [L-menthol] | 500 | 
6 | O=C/C=C/c1ccccc1 [Cinnamic aldehyde] | 125 | good bactericidal activity
